This is an account of results in ChEMBL document CHEMBL3784996, “Copper-catalyzed three-component synthesis of aminonaphthoquinone-sulfonylamidine conjugates and in vitro evaluation of their antiproliferative activity” (Bioorg Med Chem Lett, 2016).

One assay deals with HeLa. As to the kind of experiment: Cytotoxicity against human HeLa cells after 48 hrs by MTT assay. The format is functional, cell-based.
In assay [1] the test system is MCF7. As to the kind of experiment: Cytotoxicity against human MCF7 cells after 48 hrs by MTT assay. The following applies: MCF7, 48 h. The class given is functional, cell-based.
The test system of another assay is A549. As to the kind of experiment: Cytotoxicity against human A549 cells after 48 hrs by MTT assay. The class given is functional, cell-based. The following applies: A549, 48 h.
Assay [2] in a line: Cytotoxicity against human DU145 cells after 48 hrs by MTT assay. The format is functional, cell-based. Particulars: DU-145, 48 h.
The next assay has as its system HEK293. As to the kind of experiment: Cytotoxicity against HEK293 cells after 48 hrs by MTT assay. The format is cell-based. The following applies: Homo sapiens, HEK293, 48 h.
Assay [3] has as its system MCF7. As to the kind of experiment: Induction of cell cycle arrest in human MCF7 cells assessed as accumulation at sub G1 phase at 2.5 uM after 48 hrs by propidium iodide staining based flow cytometric analysis (reference value: 2.58 %). The format is functional.
Assay [4] deals with MCF7. As to the kind of experiment: Induction of cell cycle arrest in human MCF7 cells assessed as accumulation at G2/M phase at 5 uM after 48 hrs by propidium iodide staining based flow cytometric analysis (reference value: 28.45 %). The format is functional.
The test system of assay [5] is MCF7. As to the kind of experiment: Induction of cell cycle arrest in human MCF7 cells assessed as accumulation at G0/G1 phase at 2.5 uM after 48 hrs by propidium iodide staining based flow cytometric analysis (reference value: 62.95 %). The class given is functional.
In assay [6] the test system is MCF7. As to the kind of experiment: Induction of cell cycle arrest in human MCF7 cells assessed as accumulation at G2/M phase at 2.5 uM after 48 hrs by propidium iodide staining based flow cytometric analysis (reference value: 28.45 %). The format is functional.
Assay [7] deals with MCF7. As to the kind of experiment: Induction of cell cycle arrest in human MCF7 cells assessed as accumulation at sub G1 phase at 5 uM after 48 hrs by propidium iodide staining based flow cytometric analysis (reference value: 2.58 %). The class given is functional.
Assay [8] has as its system MCF7. As to the kind of experiment: Induction of cell cycle arrest in human MCF7 cells assessed as accumulation at G0/G1 phase at 5 uM after 48 hrs by propidium iodide staining based flow cytometric analysis (reference value: 62.95 %). The class given is functional.
The subject of assay [9] is MCF7. As to the kind of experiment: Induction of cell cycle arrest in human MCF7 cells assessed as accumulation at S phase at 5 uM after 48 hrs by propidium iodide staining based flow cytometric analysis (reference value: 5.04 %). The class given is functional.
In assay [10] the test system is MCF7. As to the kind of experiment: Induction of cell cycle arrest in human MCF7 cells assessed as accumulation at S phase at 2.5 uM after 48 hrs by propidium iodide staining based flow cytometric analysis (reference value: 5.04 %). The class given is functional.

Regarding `C#CCNC1=CC(=O)c2ccccc2C1=O`, the IC50 in the assay on HeLa worked out at 30.9 µM; with MCF7 [1] it was 24.1 µM; in the assay with A549, 47.3 µM; in [2], 39.8 µM; with HEK293 it was 77.6 µM.

`Cc1ccc(S(=O)(=O)/N=C(/CCNC2=CC(=O)c3ccccc3C2=O)Nc2cc(F)c(F)c(F)c2)cc1`: the IC50 was 8.58 µM in the assay with HeLa; 6.61 µM with MCF7 [1]; 10.2 µM with A549; 12.6 µM in [2]; 82.6 µM in the assay on HEK293.

With `Cc1ccc(S(=O)(=O)/N=C(/CCNC2=CC(=O)c3ccccc3C2=O)Nc2ccc(F)c(F)c2)cc1`, the IC50 with HeLa is 8.79 µM; with MCF7 [1], 9.42 µM; in the assay with A549, 16.7 µM; in assay [2], 12.9 µM; with HEK293 it was 55.2 µM.

Turning to `Cc1ccc(S(=O)(=O)/N=C(/CCNC2=CC(=O)c3ccccc3C2=O)Nc2ccccc2[N+](=O)[O-])cc1`, the half-inhibitory concentration (IC50) was 3.31 µM in the assay with HeLa; 3.09 µM in the assay on MCF7 [1]; 5.01 µM with A549; 7.59 µM in [2]; 69.6 µM in the assay on HEK293. Also, the Activity was 2.5% in the assay with MCF7 [3]; 23.6% in the assay on MCF7 [4]; 63.91% in the assay on MCF7 [5]; 27.47% with MCF7 [6]; 2.6% in the assay on MCF7 [7]; 68.18% in the assay on MCF7 [8]. Also, the Activity in the assay with MCF7 [9] is listed as 3.09%; in the assay with MCF7 [10], 3.11%.

With `Cc1ccc(S(=O)(=O)/N=C(/CCNC2=CC(=O)c3ccccc3C2=O)Nc2ccccc2I)cc1`, the IC50 was found to be 19.1 µM with HeLa; 15.5 µM in the assay on MCF7 [1]; 24.7 µM in the assay with A549; 11.7 µM in assay [2]; 49.4 µM in the assay with HEK293.

For the compound `COc1ccc(N/C(CCNC2=CC(=O)C(C)=C(C)C2=O)=N\S(=O)(=O)c2ccc(C)cc2)cc1OC`, the IC50 in the assay with HeLa amounted to 10.5 µM; in the assay with MCF7 [1], 8.71 µM; with A549, 15.5 µM; in assay [2], 14 µM; with HEK293, 79.4 µM.

Take `Cc1ccc(S(=O)(=O)/N=C(\N)CCNC2=CC(=O)c3ccccc3C2=O)cc1`: the IC50 in the assay with HeLa came to 24.6 µM; in the assay on MCF7 [1], 18.6 µM; with A549, 26.6 µM; in assay [2] it was 30.9 µM; in the assay on HEK293 it was 63.1 µM.

As for `Cc1ccc(S(=O)(=O)/N=C(/CCNC2=CC(=O)c3ccccc3C2=O)Nc2ccc(F)cc2)cc1`, the IC50 is 5.89 µM in the assay with HeLa; 4.26 µM in the assay with MCF7 [1]; 9.33 µM with A549; 12.2 µM in assay [2]; 55.1 µM in the assay with HEK293.

`COc1ccc(N/C(CCNC2=CC(=O)c3ccccc3C2=O)=N\S(=O)(=O)c2ccc(C)cc2)cc1`: the IC50 with HeLa was 7.59 µM; in the assay with MCF7 [1], 6.03 µM; in the assay on A549, 25.5 µM; in assay [2], 12 µM; with HEK293 it was 35.1 µM.

As to `Cc1ccc(S(=O)(=O)/N=C(/CCNC2=CC(=O)c3ccccc3C2=O)Nc2cccc(C(F)(F)F)c2)cc1`, the IC50 came to 77.6 µM in the assay on HeLa; 89.1 µM in the assay on MCF7 [1]; 78.5 µM in the assay with A549; 84.1 µM in [2]; 91.5 µM in the assay on HEK293.

Consider `Cc1ccc(S(=O)(=O)/N=C(/CCNC2=CC(=O)c3ccccc3C2=O)Nc2ccc(Cl)cc2Cl)cc1`, for which the IC50 in the assay with HeLa was 20.5 µM; in the assay on MCF7 [1], 17 µM; in the assay on A549 it was 32.9 µM; in [2], 18.6 µM; in the assay with HEK293 it was 41.9 µM.

For the compound `COc1ccc(N/C(CCNC2=C(Br)C(=O)c3ccccc3C2=O)=N\S(=O)(=O)c2ccc(C)cc2)cc1OC`, the IC50 in the assay on HeLa was determined as 5.37 µM; in the assay on MCF7 [1], 6.61 µM; in the assay on A549, 17.5 µM; in [2], 29.6 µM; in the assay with HEK293, 35.3 µM.

As for `Cc1ccc(S(=O)(=O)/N=C(/CCNC2=CC(=O)c3ccccc3C2=O)NCCc2c[nH]c3ccccc23)cc1`, the IC50 with HeLa worked out at 9.33 µM; in the assay with MCF7 [1], 7.76 µM; with A549, 17 µM; in assay [2], 28.4 µM; in the assay on HEK293, 42.5 µM.

Consider `Cc1ccc(S(=O)(=O)/N=C(/CCNC2=CC(=O)c3ccccc3C2=O)NC2CCCCC2)cc1`, for which the IC50 stood at 9.77 µM with HeLa; 7.58 µM in the assay with MCF7 [1]; 14.7 µM with A549; 16.6 µM in assay [2]; 50.1 µM in the assay on HEK293.

With `COc1ccc(N/C(CCNC2=CC(=O)c3ccccc3C2=O)=N\S(=O)(=O)c2ccc(C(C)(C)C)cc2)cc1OC`, the IC50 in the assay on HeLa amounted to 11.5 µM; in the assay on MCF7 [1], 8.71 µM; in the assay on A549 it was 16.2 µM; in [2], 14.5 µM; in the assay with HEK293 it was 62.3 µM.

As for `COc1cc(N/C(CCNC2=CC(=O)c3ccccc3C2=O)=N\S(=O)(=O)c2ccc(C)cc2)cc(OC)c1OC`, the IC50 in the assay on HeLa amounted to 3.39 µM; in the assay on MCF7 [1] it was 3.05 µM; with A549, 7.94 µM; in [2] it was 9.33 µM; in the assay on HEK293, 75.8 µM. Also, the Activity in the assay with MCF7 [3] is listed as 1.86%; in the assay with MCF7 [4], 5.23%; in the assay with MCF7 [5], 64.17%; in the assay with MCF7 [6] it was 27.51%; in the assay on MCF7 [7], 3.01%; in the assay with MCF7 [8], 84.55%. Besides, the figures for the Activity with MCF7 [9] and in the assay with MCF7 [10] were 5.19% and 4.14%, respectively.

For the compound `Cc1ccc(S(=O)(=O)/N=C(/CCNC2=CC(=O)c3ccccc3C2=O)Nc2ccc(Cl)cc2)cc1`, the IC50 in the assay with HeLa was determined as 13.4 µM; in the assay with MCF7 [1], 7.08 µM; in the assay with A549, 29.9 µM; in [2] it was 32.4 µM; in the assay on HEK293, 65.4 µM.

`Cc1ccc(S(=O)(=O)/N=C(/CCNC2=CC(=O)c3ccccc3C2=O)NCc2ccccc2)cc1`: the IC50 is 3.98 µM with HeLa; 3.63 µM in the assay with MCF7 [1]; 7.41 µM in the assay with A549; 9.12 µM in assay [2]; 80.2 µM in the assay on HEK293.

Turning to `Cc1ccc(S(=O)(=O)/N=C(/CCNC2=CC(=O)c3ccccc3C2=O)Nc2cccc(C)c2)cc1`, the IC50 with HeLa turned out to be 9.06 µM; with MCF7 [1], 8.12 µM; with A549 it was 18.7 µM; in assay [2], 10.2 µM; in the assay on HEK293 it was 56.2 µM.

With `COc1ccc(N/C(CCNC2=CC(=O)c3ccccc3C2=O)=N\S(=O)(=O)c2ccc(C)cc2)c(OC)c1`, the IC50 with HeLa is 67.6 µM; with MCF7 [1], 30.2 µM; in the assay with A549, 126 µM; in assay [2], 67.2 µM; with HEK293, 83 µM.

As to `Cc1ccc(S(=O)(=O)/N=C(/CCNC2=CC(=O)c3ccccc3C2=O)NC(C)C)cc1`, the IC50 turned out to be 30.2 µM in the assay on HeLa; 16.5 µM in the assay on MCF7 [1]; 44.3 µM with A549; 28.5 µM in [2]; 71.6 µM in the assay on HEK293.

`COc1ccc(N/C(CCNC2=CC(=O)c3ccccc3C2=O)=N\S(=O)(=O)c2ccc(C)cc2)cc1OC`: the IC50 came to 14.5 µM with HeLa; 12.3 µM in the assay with MCF7 [1]; 20.4 µM in the assay on A549; 17.8 µM in [2]; 60.6 µM in the assay on HEK293.

In the case of `COc1cccc2c1C(=O)c1c(O)c3c(c(O)c1C2=O)C[C@@](O)(C(=O)CO)C[C@@H]3O[C@H]1C[C@H](N)[C@H](O)[C@H](C)O1` [DOXORUBICIN], the IC50 was 1.59 µM with HeLa, 2.34 µM in the assay with A549 and 1.08 µM in assay [2].
